Legend:
Format in all cases: in vivo
Myzus persicae [1] = assay: Example B5: Myzus persicae (green peach aphid), feeding/contact activity; conditions: 144 h, application rate of 200 ppm, 6 days after infestation
Protocol: Example B5: Myzus persicae (Green Peach Aphid):Feeding/Contact Activity
Sunflower leaf discs were placed onto agar in a 24-well microtiter plate and sprayed with aqueous test solutions prepared from 10,000 ppm DMSO stock solutions. After drying, the leaf discs were infested with an aphid population of mixed ages. The samples were assessed for mortality 6 days after infestation.

Diabrotica balteata = assay: Example B2: Diabrotica balteata (corn root worm), maize sprouts, L2 larvae; conditions: 96 h, application rate of 200 ppm, 4 days after infestation, read-out: control in at least one of the two categories (mortality or growth inhibition)
Protocol: Example B2: Diabrotica balteata (Corn Root Worm)
Maize sprouts placed onto an agar layer in 24-well microtiter plates were treated with aqueous test solutions prepared from 10,000 ppm DMSO stock solutions by spraying. After drying, the plates were infested with L2 larvae (6 to 10 per well). The samples were assessed for mortality and growth inhibition in comparison to untreated samples 4 days after infestation.
The following compounds gave an effect of at least 80% control in at least one of the two categories (mortality or growth inhibition) at an application rate of 200 ppm: […]

Plutella xylostella = assay: Example B8: Plutella xylostella (diamond back moth), artificial diet 24-well, eggs; conditions: 192 h, application rate of 200 ppm, 8 days after infestation, read-out: effect in at least one of the two categories (mortality or growth inhibition)
In short: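 Artificial diet in 24-well plates treated with aqueous dilutions of DMSO stock (10,000 ppm stock) and dried, then infested with Plutella eggs. Mortality and growth inhibition scored versus untreated samples 8 days after infestation.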

Spodoptera littoralis = assay: Example B9: Spodoptera littoralis (Egyptian cotton leaf worm), cotton leaf discs, L1 larvae; conditions: foliar, 72 h, application rate of 200 ppm, 3 days after infestation, read-out: control in at least one of the three categories (mortality, anti-feedant effect, or growth inhibition)
In short: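 Cotton leaf discs on agar sprayed with aqueous test solutions from 10,000 ppm DMSO stocks, dried, then infested with five L1 larvae. Mortality, anti-feeding and growth inhibition scored against untreated samples 3 days after infestation.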

Chilo suppressalis = assay: Example B1: Chilo suppressalis (striped rice stemborer), artificial diet, L2 larvae; conditions: 144 h, application rate of 200 ppm, 6 days after infestation, read-out: control in at least one of the three categories (mortality, anti-feedant effect, or growth inhibition)
In short: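 Artificial diet was treated with aqueous test solutions made from 10,000 ppm DMSO stocks, dried, then infested with L2 larvae (6-8 per well). Mortality, anti-feeding effect and growth inhibition were scored against untreated samples 6 days after infestation, and control was counted when any category exceeded untreated.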

Myzus persicae [2] = assay: Example B7: Myzus persicae (green peach aphid), intrinsic activity, sucrose solution 24-well; conditions: 120 h, application rate of 12.5 ppm, 5 days after infestation, read-out: control (mortality)
Text: Example B7: Myzus persicae (Green Peach Aphid). Intrinsic Activity
Test compounds prepared from 10,000 ppm DMSO stock solutions were applied by pipette into 24-well microtiter plates and mixed with sucrose solution. The plates were closed with a stretched Parafilm. A plastic stencil with 24 holes was placed onto the plate and infested pea seedlings were placed directly on the Parafilm. The infested plate was closed with a gel blotting paper and another plastic stencil and then turned upside down. The samples were assessed for mortality 5 days after infestation.
The following compounds gave an effect of at least 80% control at an application rate of 12.5 ppm: […]

C[C@H](NC(=O)Nc1cc(C(F)(F)F)n(C)n1)c1ncnn1-c1ncccn1 [Example P108, 1-[1-methyl-5-(trifluoromethyl)pyrazol-3-yl]-3-[(1S)-1-(2-pyrimidin-2-yl-1,2,4-triazol-3-yl)ethyl]urea]
≥ 80%: mortality at 200 ppm (Myzus persicae [1])

C[C@H](NC(=O)Nc1cc(C(F)(F)F)ncn1)c1ncnn1-c1ncccn1 [Example P32, 1-[(1S)-1-(2-pyrimidin-2-yl-1,2,4-triazol-3-yl)ethyl]-3-[6-(trifluoromethyl)pyrimidin-4-yl]urea]
≥ 80%: mortality at 200 ppm (Myzus persicae [1])

COc1cc(Cl)c(NC(=O)N[C@@H](C)c2ncnn2-c2ncccn2)cc1Cl [Example P204, 1-(2,5-dichloro-4-methoxy-phenyl)-3-[(1S)-1-(2-pyrimidin-2-yl-1,2,4-triazol-3-yl)ethyl]urea]
≥ 80%: mortality at 200 ppm (Myzus persicae [1])

C[C@H](NC(=O)Nc1cc(OC(F)(F)C(F)C(F)(F)F)c(Cl)cc1F)c1ncnn1-c1ncccn1 (stereo partly drawn) [Example P215, 1-[4-chloro-2-fluoro-5-(1,1,2,3,3,3-hexafluoropropoxy)phenyl]-3-[(1S)-1-(2-pyrimidin-2-yl-1,2,4-triazol-3-yl)ethyl]urea]
≥ 80%: percent control (mortality or growth inhibition) at 200 ppm (Diabrotica balteata) | percent effect (mortality or growth inhibition) at 200 ppm (Plutella xylostella) | percent control (mortality, anti-feedant effect or growth inhibition) at 200 ppm (Spodoptera littoralis) | percent control (mortality, anti-feedant effect or growth inhibition) at 200 ppm (Chilo suppressalis) | mortality at 12.5 ppm (Myzus persicae [2])

C[C@H](NC(=O)Nc1cnc(C(F)(F)F)cc1Cl)c1ncnn1-c1ccc(C#N)cn1 [Example P257, 1-[4-chloro-6-(trifluoromethyl)-3-pyridyl]-3-[(1S)-1-[2-(5-cyano-2-pyridyl)-1,2,4-triazol-3-yl]ethyl]urea]
≥ 80%: percent control (mortality or growth inhibition) at 200 ppm (Diabrotica balteata) | percent effect (mortality or growth inhibition) at 200 ppm (Plutella xylostella) | percent control (mortality, anti-feedant effect or growth inhibition) at 200 ppm (Spodoptera littoralis) | percent control (mortality, anti-feedant effect or growth inhibition) at 200 ppm (Chilo suppressalis) | mortality at 12.5 ppm (Myzus persicae [2])

C[C@H](NC(=O)Nc1cc(C(F)(F)F)c(Cl)cc1Br)c1ncnn1-c1ncccn1 [Example P48, 1-[2-bromo-4-chloro-5-(trifluoromethyl)phenyl]-3-[(1S)-1-(2-pyrimidin-2-yl-1,2,4-triazol-3-yl)ethyl]urea]
≥ 80%: percent control (mortality or growth inhibition) at 200 ppm (Diabrotica balteata) | percent effect (mortality or growth inhibition) at 200 ppm (Plutella xylostella) | percent control (mortality, anti-feedant effect or growth inhibition) at 200 ppm (Spodoptera littoralis) | percent control (mortality, anti-feedant effect or growth inhibition) at 200 ppm (Chilo suppressalis) | mortality at 12.5 ppm (Myzus persicae [2])

C[C@H](NC(=O)Nc1cc(OC(F)(F)F)c(Cl)cc1F)c1ncnn1-c1ncccn1 [Example P214, 1-[4-chloro-2-fluoro-5-(trifluoromethoxy)phenyl]-3-[(1S)-1-(2-pyrimidin-2-yl-1,2,4-triazol-3-yl)ethyl]urea]
≥ 80%: percent control (mortality or growth inhibition) at 200 ppm (Diabrotica balteata) | percent effect (mortality or growth inhibition) at 200 ppm (Plutella xylostella) | percent control (mortality, anti-feedant effect or growth inhibition) at 200 ppm (Spodoptera littoralis) | percent control (mortality, anti-feedant effect or growth inhibition) at 200 ppm (Chilo suppressalis) | mortality at 12.5 ppm (Myzus persicae [2])

CC(NC(=O)Nc1cc(OC(F)(F)C(F)F)c(Cl)cc1Cl)c1ncnn1-c1ncccn1 (centres unmarked) [Example P177, 1-[2,4-dichloro-5-(1,1,2,2-tetrafluoroethoxy)phenyl]-3-[1-(2-pyrimidin-2-yl-1,2,4-triazol-3-yl)ethyl]urea]
≥ 80%: percent control (mortality or growth inhibition) at 200 ppm (Diabrotica balteata) | percent effect (mortality or growth inhibition) at 200 ppm (Plutella xylostella) | percent control (mortality, anti-feedant effect or growth inhibition) at 200 ppm (Spodoptera littoralis) | percent control (mortality, anti-feedant effect or growth inhibition) at 200 ppm (Chilo suppressalis) | mortality at 12.5 ppm (Myzus persicae [2])

Cc1cc(F)c(OS(C)(=O)=O)cc1NC(=O)N[C@@H](C)c1ncnn1-c1ncccn1 [Example P181, [2-fluoro-4-methyl-5-[[(1S)-1-(2-pyrimidin-2-yl-1,2,4-triazol-3-yl)ethyl]carbamoylamino]phenyl] methanesulfonate]
≥ 80%: mortality at 200 ppm (Myzus persicae [1]) | percent control (mortality, anti-feedant effect or growth inhibition) at 200 ppm (Chilo suppressalis) | mortality at 12.5 ppm (Myzus persicae [2])

C[C@H](NC(=O)Nc1ccnn1-c1ccc(Cl)cn1)c1ncnn1-c1ncccn1 [Example P17, 1-[2-(5-chloro-2-pyridyl)pyrazol-3-yl]-3-[(1S)-1-(2-pyrimidin-2-yl-1,2,4-triazol-3-yl)ethyl]urea]
≥ 80%: mortality at 200 ppm (Myzus persicae [1])

COc1ccc(COc2cc(NC(=O)N[C@@H](C)c3ncnn3-c3ncccn3)c(Cl)cc2Cl)cc1F [Example P168, 1-[2,4-dichloro-5-[(3-fluoro-4-methoxy-phenyl)methoxy]phenyl]-3-[(1S)-1-(2-pyrimidin-2-yl-1,2,4-triazol-3-yl)ethyl]urea]
≥ 80%: mortality at 200 ppm (Myzus persicae [1])

CC(NC(=O)Nc1cc(OC(F)(F)C(F)F)c(Cl)cc1Cl)c1nccnc1-c1ncccn1 (centres unmarked) [Example P238, 1-[2,4-dichloro-5-(1,1,2,2-tetrafluoroethoxy)phenyl]-3-[1-(3-pyrimidin-2-ylpyrazin-2-yl)ethyl]urea]
≥ 80%: percent control (mortality or growth inhibition) at 200 ppm (Diabrotica balteata) | percent effect (mortality or growth inhibition) at 200 ppm (Plutella xylostella) | percent control (mortality, anti-feedant effect or growth inhibition) at 200 ppm (Spodoptera littoralis) | percent control (mortality, anti-feedant effect or growth inhibition) at 200 ppm (Chilo suppressalis) | mortality at 12.5 ppm (Myzus persicae [2])

C[C@H](NC(=O)Nc1cc(OC(F)F)c(Cl)cc1Cl)c1ncnn1-c1ncccn1 [Example P272, 1-[2,4-dichloro-5-(difluoromethoxy)phenyl]-3-[(1S)-1-(2-pyrimidin-2-yl-1,2,4-triazol-3-yl)ethyl]urea]
≥ 80%: percent control (mortality or growth inhibition) at 200 ppm (Diabrotica balteata) | percent effect (mortality or growth inhibition) at 200 ppm (Plutella xylostella) | percent control (mortality, anti-feedant effect or growth inhibition) at 200 ppm (Spodoptera littoralis) | percent control (mortality, anti-feedant effect or growth inhibition) at 200 ppm (Chilo suppressalis) | mortality at 12.5 ppm (Myzus persicae [2])

C[C@H](NC(=O)Nc1cc(C(F)(F)F)cc(C(F)(F)F)n1)c1ncnn1-c1ncccn1 [Example P91, 1-[4,6-bis(trifluoromethyl)-2-pyridyl]-3-[(1S)-1-(2-pyrimidin-2-yl-1,2,4-triazol-3-yl)ethyl]urea]
≥ 80%: mortality at 200 ppm (Myzus persicae [1])

C[C@H](NC(=O)Nc1cc(OCc2cccc(Br)n2)c(Cl)cc1Cl)c1ncnn1-c1ncccn1 [Example P145, 1-[5-[(6-bromo-2-pyridyl)methoxy]-2,4-dichloro-phenyl]-3-[(1S)-1-(2-pyrimidin-2-yl-1,2,4-triazol-3-yl)ethyl]urea]
≥ 80%: mortality at 200 ppm (Myzus persicae [1])

C[C@H](NC(=O)Nc1cc2c(cc1Cl)C(=O)N(C)C2=O)c1ncnn1-c1ncccn1 [Example P207, 1-(6-chloro-2-methyl-1,3-dioxo-isoindolin-5-yl)-3-[(1S)-1-(2-pyrimidin-2-yl-1,2,4-triazol-3-yl)ethyl]urea]
≥ 80%: mortality at 200 ppm (Myzus persicae [1])

C[C@H](NC(=O)Nc1cc(C(C)(C)C#N)c(Cl)cc1F)c1ncnn1-c1ncccn1 [Example P202, 1-[4-chloro-5-(1-cyano-1-methyl-ethyl)-2-fluoro-phenyl]-3-[(1S)-1-(2-pyrimidin-2-yl-1,2,4-triazol-3-yl)ethyl]urea]
≥ 80%: mortality at 200 ppm (Myzus persicae [1]) | percent effect (mortality or growth inhibition) at 200 ppm (Plutella xylostella) | percent control (mortality, anti-feedant effect or growth inhibition) at 200 ppm (Spodoptera littoralis) | percent control (mortality, anti-feedant effect or growth inhibition) at 200 ppm (Chilo suppressalis) | mortality at 12.5 ppm (Myzus persicae [2])

Cc1nc([C@H](C)NC(=O)Nc2cc(OC(F)(F)C(F)F)c(Cl)cc2Cl)n(-c2ncccn2)n1 [Example P276, 1-[2,4-dichloro-5-(1,1,2,2-tetrafluoroethoxy)phenyl]-3-[(1S)-1-(5-methyl-2-pyrimidin-2-yl-1,2,4-triazol-3-yl)ethyl]urea]
≥ 80%: percent control (mortality or growth inhibition) at 200 ppm (Diabrotica balteata) | percent effect (mortality or growth inhibition) at 200 ppm (Plutella xylostella) | percent control (mortality, anti-feedant effect or growth inhibition) at 200 ppm (Spodoptera littoralis) | percent control (mortality, anti-feedant effect or growth inhibition) at 200 ppm (Chilo suppressalis) | mortality at 12.5 ppm (Myzus persicae [2])
